Laboratory results from US20250214962A1, “PYRIDINONE DERIVATIVES AS SELECTIVE CYTOTOXIC AGENTS AGAINST HIV INFECTED CELLS” (Merck Sharp & Dohme LLC, priority 2019, published 2025).

Legend:
[1] = system: infected PBMCs (VSV-G pseudotyped HIV virus); test: cells; type: cell-based, human; conditions: Homo sapiens, PBMC, read-out: SMACK EC50_50% NHS
[2] = Viking EC50, 50% NHS; type: cell-based; conditions: method not described, read-out: Viking EC50_50% NHS

SMILES | EC50 [1] [nM] | EC50 [2] [nM]
COCc1ccc(Cn2cnc(C(F)(F)C(F)F)c(Oc3cc(Cl)cc(C#N)c3F)c2=O)c(=O)[nH]1 [Example 1, 5-Chloro-2-Fluoro-3-((1-((6-(Methoxymethyl)-2-Oxo-1,2-Dihydropyridin-3-Yl)Methyl)-6-Oxo-4-(1,1,2,2-Tetrafluoroethyl)-1,6-Dihydropyrimidin-5-Yl)Oxy)Benzonitrile] | 258 | 29.6
Cc1cc(C)c(Cn2cnc(C(F)(F)F)c(Oc3cc(C(F)F)cc(C#N)c3C)c2=O)c(=O)[nH]1 [Example 42, 5-(Difluoromethyl)-3-((1-((4,6-Dimethyl-2-Oxo-1,2-Dihydropyridin-3-Yl)Methyl)-6-Oxo-4-(Trifluoromethyl)-1,6-Dihydropyrimidin-5-Yl)Oxy)-2-Methylbenzonitrile] | 222 | 43.1
CC(F)c1ncn(Cc2ccc(CO)[nH]c2=O)c(=O)c1Oc1cc(Cl)cc(C#N)c1F (single isomer, unassigned) [Example 32, 5-Chloro-2-Fluoro-3-((4-(1-Fluoroethyl)-1-((6-(Hydroxymethyl)-2-Oxo-1,2-Dihydropyridin-3-Yl)Methyl)-6-Oxo-1,6-Dihydropyrimidin-5-Yl)Oxy)Benzonitrile] | 377 | 18.2
Cc1c(C#N)cc(Cl)cc1Oc1c(C(C)F)ncn(Cc2ccc(-c3cc[nH]n3)[nH]c2=O)c1=O (centres unmarked) [Example 12, 5-chloro-3-((4-(1-fluoroethyl)-6-oxo-1-((2-oxo-6-(1H-pyrazol-3-yl)-1,2-dihydropyridin-3-yl)methyl)-1,6-dihydropyrimidin-5-yl)oxy)-2-methylbenzonitrile] | 374 | 127
N#Cc1cc(Cl)cc(Oc2c(C(F)(F)C(F)(F)F)ncn(Cc3cc(F)c[nH]c3=O)c2=O)c1F [Example 20, 5-chloro-2-fluoro-3-((1-((5-fluoro-2-oxo-1,2-dihydropyridin-3-yl)methyl)-6-oxo-4-(perfluoroethyl)-1,6-dihydropyrimidin-5-yl)oxy)benzonitrile] | 99 | 83.7
Cc1c(C#N)cc(C(F)F)cc1Oc1c(C(F)(F)C(F)F)ncn(Cc2ccc(CO)[nH]c2=O)c1=O [Example 25, 5-(Difluoromethyl)-3-((1-((6-(Hydroxymethyl)-2-Oxo-1,2-Dihydropyridin-3-Yl)Methyl)-6-Oxo-4-(1,1,2,2-Tetrafluoroethyl)-1,6-Dihydropyrimidin-5-Yl)Oxy)-2-Methylbenzonitrile] | 72.7 | 19.6
Cc1cc(C#N)c(C)c(Oc2c(C(F)(F)C(F)F)ncn(Cc3c(C)cc(C)[nH]c3=O)c2=O)c1 [Example 24, 3-((1-((4,6-Dimethyl-2-Oxo-1,2-Dihydropyridin-3-Yl)Methyl)-6-Oxo-4-(1,1,2,2-Tetrafluoroethyl)-1,6-Dihydropyrimidin-5-Yl)Oxy)-2,5-Dimethylbenzonitrile] | 346 | 168
Cc1c(C#N)cc(C(F)F)cc1Oc1c(C(F)(F)C(F)F)ncn(Cc2cc(Br)c[nH]c2=O)c1=O [Example 11, 3-((1-((5-bromo-2-oxo-1,2-dihydropyridin-3-yl)methyl)-6-oxo-4-(1,1,2,2-tetrafluoroethy)-1,6-dihydropyrimidin-5-yl)oxy)-5-(difluoromethyl)-2-methylbenzonitrile] | 402 | 
Cc1c(C#N)cc(C(F)F)cc1Oc1c(C(F)(F)C(F)F)ncn(Cc2ccc(CCCO)[nH]c2=O)c1=O [Example 28, 5-(difluoromethyl)-3-((1-((6-(3-hydroxypropyl)-2-oxo-1,2-dihydropyridin-3-yl)methyl)-6-oxo-4-(1,1,2,2-tetrafluoroethyl)-1,6-dihydropyrimidin-5-yl)oxy)-2-methylbenzonitrile] | 73.8 | 
Cc1cc(C)c(Cn2cnc(C(F)(F)C(F)F)c(Oc3c(C)cc(C#N)cc3C)c2=O)c(=O)[nH]1 [Example 10, 4-((1-((4,6-dimethyl-2-oxo-1,2-dihydropyridin-3-yl)methyl)-6-oxo-4-(1,1,2,2-tetrafluoroethyl)-1,6-dihydropyrimidin-5-yl)oxy)-3,5-dimethylbenzonitrile] | 246 | 
